# In patent EP0003415A2, “Beta-Lactam compounds, processes for their preparation,compositions containing them and intermediates of use in their preparation” (GLAXO GROUP LIMITED, priority 1978, dated 1979):
# Experiments:
# Assay in all cases: Determination of Minimum Inhibitory Concentrations (MIC), agar dilution
# Format in all cases: cell-based
# E. cloacae 1321E = conditions: Enterobacter cloacae, clinical isolate, Oxoid No.1 Nutrient agar, approximately 10^5 colony forming units, read after 18 hours at 37°C
# From the text: (§1) Biological testing of two of the compounds of the invention has provided the results shown below; the test compounds are identified by their Example Numbers: 1. Determination of Minimum Inhibitory Concentrations (MIC) Serial two-fold dilutions of freshly prepared test solutions were made into Oxoid No.l Nutrient agar with or without added enrichment and poured into petri […] Plates were inoculated with a multipoint inoculator with inoculum containing approximately 10^5 colony forming units of the organisms shown in the following Tables, all of which organisms are clinical isolates. The MIC, quoted in the Table as μg/ml, was read after 18 hours incubation at 37°C as the lowest concentration which inhibited growth.
# K. aerogenes 1522E = conditions: Klebsiella aerogenes, clinical isolate, Oxoid No.1 Nutrient agar, approximately 10^5 colony forming units, read after 18 hours at 37°C
# From the text: as §1
# Staph.aureus 853E = conditions: Staphylococcus aureus, clinical isolate, Oxoid No.1 Nutrient agar, approximately 10^5 colony forming units, read after 18 hours at 37°C
# From the text: as §1
# H. influenzae 1184E = conditions: Haemophilus influenzae, clinical isolate, Oxoid No.1 Nutrient agar, approximately 10^5 colony forming units, read after 18 hours at 37°C
# From the text: as §1
# Micrococcus Sp 1810E = conditions: SP1810E, clinical isolate, Oxoid No.1 Nutrient agar, approximately 10^5 colony forming units, read after 18 hours at 37°C
# From the text: as §1
# E. coli 851E = conditions: Escherichia coli, clinical isolate, Oxoid No.1 Nutrient agar, approximately 10^5 colony forming units, read after 18 hours at 37°C
# From the text: as §1
# E. cloacae 1051E = conditions: Enterobacter cloacae, clinical isolate, Oxoid No.1 Nutrient agar, approximately 10^5 colony forming units, read after 18 hours at 37°C
# From the text: as §1
# S. marcescens 1324E = conditions: Serratia marcescens, clinical isolate, Oxoid No.1 Nutrient agar, approximately 10^5 colony forming units, read after 18 hours at 37°C
# From the text: as §1
Structure (SMILES),MIC (E. cloacae 1321E),MIC (K. aerogenes 1522E),MIC (Staph.aureus 853E),MIC (H. influenzae 1184E),MIC (Micrococcus Sp 1810E),MIC (E. coli 851E),MIC (E. cloacae 1051E),MIC (S. marcescens 1324E)
"NCCC1=C(C(=O)O)N2C(=O)CC2S1 (racemic) [Example 4, (5RS)-2-(2-Aminoethyl)pen-2-em-3-carboxylic acid]",8 µg/mL,16 µg/mL,1 µg/mL,62 µg/mL,0.2 µg/mL,8 µg/mL,8 µg/mL,31 µg/mL
"NCCCC1=C(C(=O)O)N2C(=O)CC2S1 (racemic) [Example 19, (5RS)-2-[3-Aminopropyl]-pen-2-em-3-carboxylate]",8 µg/mL,16 µg/mL,0.5 µg/mL,16 µg/mL,0.1 µg/mL,8 µg/mL,16 µg/mL,31 µg/mL
